Legend:
[1] = tested on: T47D human breast cancer cells; experiment: Viable cell count on hemocytometer with trypan blue exclusion; type: cell-based; settings: low and high doses, 24, 48, 72 hours, FIG. 2 panel 181
Experimental: (§1) Cell culture: T80 and T47D human breast cancer cells were routinely cultured in DMEM supplemented with 10% fetal calf serum (FCS) (Biological Industries, Beit Haemek, Israel), 4 mM glutamine (Biological Ind.), 100 u/ml penicillin, 0.1 milligram/milliliter streptomycin, 12.5 units/milliliter nystatin (Biological Ind.) and 0.2 units/milliliter insulin (Lilly, Fegersheim, France).
(§2) About 2×10^5 cells were plated on 6 well-plates and left overnight to adhere. Two different concentrations of different drugs were added for a period of 24, 48 and 72 hours and then cells were harvested with trypsin, centrifuged, and resuspended in culture medium until staining.
(§3) Navelbine and 5-Fluorouracil (5FU) where added at low and high doses to T80 and T47D cells respectively for 24, 48, and 72 hours. The cells were counted on a hemocytometer, using trypan blue for exclusion of dead cells, for the purpose of Electro-optical scanner -independent estimation of drug efficacy.

[2] = tested on: T47D human breast cancer cells; experiment: Rh123 fluorescence intensity, Electro-optical scanner (CellScan); type: cell-based
Experimental: as §2
(§4) Cell staining and loading: Three samples were prepared for each treatment at a specific time point and stained each with a different dye: fluorescein diacetate (FDA), rhodamine 123 (Rh123), and acridine orange (AO). […]
Rh123 (1 microgram/milliliter final concentration) was added to cells suspended in culture medium for 30 minutes at 37° C. Then the cells were washed twice with cold PBS supplemented with Mg^+2 and Ca^+2, loaded on the cell carrier and fluorescence intensity and polarization were measured by an Argon laser-based Electro-optical scanner. […]
(§5) For the excitation of FDA-stained cells an He/Cd laser was utilized (442 nm, excitation power of 4.5 microwatt) and emission measured at 527 nm. For the detection of AO and Rh123-stained cells an Argon laser was utilized (488 nm, excitation power of 15 microwatt) and emission measured at 530 nm.
(§6) The fluorescence emission of an area containing 20×20 wells was measured using a preset photon counting mode in which the same number of photons is counted for each cell (10,000), canceling differences in precision from strong and weak-emitting cells. […]

[3] = tested on: T47D human breast cancer cells; experiment: FDA fluorescence polarization, Electro-optical scanner (CellScan); type: cell-based; settings: FIG. 5 panel 191
Experimental: as §2, §4
(§7) Cells in suspension were stained for 5 minutes with FDA at a final concentration of 2.4 micromolar. The cells were then loaded on the cell carrier, washed twice with PBS supplemented with Mg^+2 and Ca^+2, and fluorescence intensity and polarization were measured by an He/Cd laser-based CellScan™ electro-optical scanner. […]
as §5, §6

[4] = tested on: T47D human breast cancer cells; experiment: AO fluorescence intensity, Electro-optical scanner (CellScan); type: cell-based; settings: FIG. 6 panels 195-197
Experimental: as §2
(§8) Cell staining and loading: Three samples were prepared for each treatment at a specific time point and stained each with a different dye: fluorescein diacetate (FDA), rhodamine 123 (Rh123), and acridine orange (AO).
(§9) AO is usually used as a direct probe for nucleic acids in fixed or permeabilized cells. When used under appropriate conditions of concentration and pH it gives bright green fluorescence when bound to double-stranded DNA and red deep fluorescence when bound to single strand RNA and can serve for estimation of cellular DNA content and transcriptional activity. AO was added directly to the cell carrier loaded with cells for 5 minutes at a final concentration of 10 microgram/milliliter, washed twice directly on the grid and measured on an Argon laser-based Electro-optical scanner. […]
(§10) For the excitation of FDA-stained cells an He/Cd laser was utilized (442 nm, excitation power of 4.5 microwatt) and emission measured at 527 nm. For the detection of AO and Rh123-stained cells an Argon laser was utilized (488 nm, excitation power of 15 microwatt) and emission measured at 530 nm. […]

[5] = tested on: T80 human breast cancer cells; experiment: Viable cell count on hemocytometer with trypan blue exclusion; type: cell-based; settings: low and high doses, 24, 48, 72 hours, FIG. 2 panel 180
Experimental: as §1, §2, §3

[6] = tested on: T80 human breast cancer cells; experiment: FDA fluorescence polarization, Electro-optical scanner (CellScan); type: cell-based; settings: FIG. 5 panel 190
Experimental: as §2, §4, §7, §5, §6

[7] = tested on: T80 human breast cancer cells; experiment: AO fluorescence intensity, Electro-optical scanner (CellScan); type: cell-based; settings: one day after starting treatment, FIG. 6 panels 192-194
Experimental: as §2, §8, §9, §10

[8] = tested on: T80 human breast cancer cells; experiment: Rh123 fluorescence intensity, Electro-optical scanner (CellScan)

| Structure (SMILES) | effect on number of viable cells counted (trypan blue exclusion) [1] | change in Rh123 fluorescence intensity versus control untreated cells ([2]; FIG. 3 panel 183) | change of mean fluorescence intensity of Rh123 stained cells, measured one-cell-at-a-time ([2]; FIG. 4 panels 187-189) | change of mean polarization of FDA fluorescence [3] | change of mean fluorescence intensity of AO stained cells, measured one-cell-at-a-time [4] | effect on number of viable cells counted (trypan blue exclusion) [5] | change of mean polarization of FDA fluorescence [6] | change of mean fluorescence intensity of AO stained cells, measured one-cell-at-a-time [7] | change in Rh123 fluorescence intensity versus control untreated cells ([8]; FIG. 3 panel 182) | change of mean fluorescence intensity of Rh123 stained cells, measured one-cell-at-a-time ([8]; one day after starting treatment, FIG. 4 panels 184-186) |
| --- | --- | --- | --- | --- | --- | --- | --- | --- | --- | --- |
| O=c1[nH]cc(F)c(=O)[nH]1 [5FU, 5-Fluorouracil] | mild and not significant effects | no significant change in fluorescence intensity | no significant change of mean fluorescence intensity | no significant change of mean fluorescence polarization | no significant change of mean fluorescence intensity |  |  |  |  |  |
| CCC1=C[C@@H]2CN(C1)Cc1c([nH]c3ccccc13)[C@@](C(=O)OC)(c1cc3c(cc1OC)N(C)[C@H]1[C@@](O)(C(=O)OC)[C@H](OC(C)=O)[C@]4(CC)C=CCN5CC[C@]31[C@@H]54)C2 [Navelbine] |  |  |  |  |  | cytotoxic effect | increase of mean polarization | decrease of mean fluorescence intensity | decrease in Rh123 fluorescence intensity is obvious and markedly significant | decrease of mean fluorescence intensity |

Source: patent US20030036049A1, “Optical method for testing sensitivity of cells” (MEDIS EL LTD., priority 2001, published 2003)
